Entries after “also recorded” stand apart in the source; their conditions may differ. Where a name gives a salt, the structure may show the parent alone.
What was measured:
129S6/SvEvTac mice [1] = experiment: Fighting behavior during SD bouts; assay type: in vivo; conditions: SD-Flx vs SD-Veh
Experimental: (§1) Adult aggressor CD-1 male mice were single-housed in Macrolon® polycarbonate resin cages (15.25 in×7.8 in×9.5 in) (Animal Care Systems, Inc., Centennial, Colo.). Male 129S6/SvEvTac mice (9 weeks of age) were subsequently placed into the resident. CD-1 mouse's cage. Three antagonistic encounters were allowed between the CD-1 mouse and the intruder. Each of these encounters typically lasted less than 5 min. Following the encounters, mice were separated by a polished stainless steel cage divider (Animal Care Systems, Inc., Centennial, Colo., P/N C79171), which allowed for olfactory and auditory communication, but limited visual or tactile contact. The partition was removed daily for 2 weeks and 3 antagonistic encounters were allowed between the mice each day. This procedure consistently yielded a submissive phenotype in the experimental intruder mice. Control (Ctrl) mice were group housed 4 to 5 per cage in Macrolon® polycarbonate resin cages without dividers.

129S6/SvEvTac mice [2] = experiment: Forced swim test (FST) in social defeat (SD) model; assay type: in vivo
Experimental: Experiment 1 (Pre-ketamine in social defeat (SD)): At 8 weeks of age, a single injection of saline (0.9% NaCl) or ketamine (K) (10, 30, or 90 mg kg^−1) (Ketaset III, Ketamine HCl, Fort Dodge Animal Health, Forth Dodge, Iowa) was administered. Ketamine was prepared in physiological saline and all injections were administered intraperitoneally (i.p.) in volumes of 0.1 cc per […]. […] At 9 weeks of age, 1 week following this injection, SD was started.
24 h after the last bout of SD, a single injection of saline or ketamine (30 mg kg^−1) was administered (mice were 11 weeks old). The forced swim test (PST) was administered 2 h following the injection.
(§2) Experiment 3 (Pre-fluoxetine in SD): At 6 weeks of age, fluoxetine hydrochloride (Fix) (BioTrend Chemicals AG, B6197) was administered in the drinking water (18 mg kg^−1/day) for 3 weeks before the start of SD. Starting at 9 weeks of age, SD was then administered for 2 weeks without vehicle or Flx in the drinking water.
as §1
The FST was administered as previously described (A11). Briefly, mice were placed into clear plastic buckets 20 cm in diameter and 23 cm deep filled ⅔ of the way with 22° C. water. Mice were videotaped, from the side for 6 min and were exposed to the swim test on 2 consecutive days. For the SI) experiments, scoring was performed using an automated Viewpoint Videotrack software package (http://www.viewpoint.fr/en/a/anxiety-and-depression). For the CORT experiments, automated scoring was done using the automated X'PERT EST software suite (Bioseb, Vitrolles, France). The dependent variable was immobility.

C57BL/6NTac mice [3] = experiment: Tail suspension test (TST) after CORT; assay type: in vivo; conditions: after 4 weeks of CORT; ketamine 10 mg kg^−1 one injection or fluoxetine 18 mg kg^−1 per day; both time points
Experimental: Experiment 6 (Post-ketamine and post-fluoxetine in CORT); In C57BL/6NTac mice. vehicle or CORT was administered for 4 weeks in the drinking water. While administration with 0.45% β-CD or CORT continued, mice were injected with saline or ketamine (10 mg kg^−1), or were administered vehicle or chronic fluoxetine (18 mg kg^−1 per day in the drinking water).
The TST was administered as previously described (A2). Briefly, animals were suspended for 6 min and immobility during this period was assessed using an automated TST apparatus (Bioseb, Vitrolles, France). A specific strain gauge linked to a computer quantifies the time spent by each mouse trying to escape.

C57BL/6NTac mice [4] = experiment: FST in chronic corticosterone (CORT) model; assay type: in vivo; conditions: ketamine 90 mg kg^−1 or fluoxetine 18 mg kg^−1/day, before 3 weeks of CORT; hydrochloride
C57BL/6NTac mice [5] = experiment: NSF in CORT model; assay type: in vivo; conditions: treatment after 4 weeks of CORT; 14 days after the start of treatment
Experimental: Experiment 5 (Pre-ketamine and pre-fluoxetine corticosterone (CORT)): C57BL16NTac mice were injected with ketamine (10, 30, 90 mg kg^−1, i.p.) 1 week before the start of CORT, or administered fluoxetine (18 mg kg^−1 per day) in the drinking water for 3 weeks before the start of CORT. Ketamine was purchased from Merial (100 mg/ml stock solution). Fluoxetine hydrochloride (160 μg/mL, equivalent to 18 mg kg^−1 per day in the drinking water) was purchased from Anawa Trading (Zurich, Switzerland) and dissolved in 0.45% hydroxypropyl-β-cyclodextrin (β-CD) (Sigma-Aldrich, Saint-Quentin Fallavier, France) solution. Following ketamine or fluoxetine treatment, CORT was administered for 3 weeks in the drinking water. CORT (4-pregnen-11b-DIOL-3 20-DIONE 21-hemisuccinate) (35 μg/ml) from. Sigma Aldrich (Saint-Quentin Fallavier, France) was dissolved in vehicle (0.45% β-CD). Control animals received vehicle (0.45% β-CD) throughout the duration of the experiment. […]
Testing was performed as previously described (A13). […] The latency of the mice to begin eating was recorded. Immediately after the latency was recorded, the food pellet was removed from the arena. The mice were then placed into a cage and the amount of food consumed in 5 min was measured (home cage consumption), followed by an assessment of post-restriction weight. […]

[6] = Body weight in CORT model; assay type: in vivo, mice; conditions: ketamine 90 mg kg^−1 single injection or fluoxetine 18 mg kg^−1 for 3 weeks, before CORT
C57BL/6NTac mice [7] = experiment: EPM in CORT model; assay type: in vivo; conditions: ketamine or fluoxetine before CORT
Experimental: Experiment 5 (Pre-ketamine and pre-fluoxetine corticosterone (CORT)): C57BL16NTac mice were injected with ketamine (10, 30, 90 mg kg^−1, i.p.) 1 week before the start of CORT, or administered fluoxetine (18 mg kg^−1 per day) in the drinking water for 3 weeks before the start of CORT. Ketamine was purchased from Merial (100 mg/ml stock solution). Fluoxetine hydrochloride (160 μg/mL, equivalent to 18 mg kg^−1 per day in the drinking water) was purchased from Anawa Trading (Zurich, Switzerland) and dissolved in 0.45% hydroxypropyl-β-cyclodextrin (β-CD) (Sigma-Aldrich, Saint-Quentin Fallavier, France) solution. Following ketamine or fluoxetine treatment, CORT was administered for 3 weeks in the drinking water. CORT (4-pregnen-11b-DIOL-3 20-DIONE 21-hemisuccinate) (35 μg/ml) from. Sigma Aldrich (Saint-Quentin Fallavier, France) was dissolved in vehicle (0.45% β-CD). Control animals received vehicle (0.45% β-CD) throughout the duration of the experiment.
Testing was performed as previously described (A14). […] For the 12956/SvEv experiments, videos were scored using behavioral tracking software (TopScan, CleverSys, Reston, Va.). For the C57BL/6Ntac experiments, all parameters were measured using a videotracker (EPM3C. Bioseb, Vitrolles, France).

129S6/SvEvTac mice [8] = experiment: Other behaviors following fluoxetine treatment before SD; assay type: in vivo; conditions: fluoxetine 3 weeks before SD
Experimental: as §2

129S6/SvEv mice = experiment: FST after prophylactic ketamine or ketamine metabolites (FIG. 15); assay type: in vivo; conditions: at 10 and 30 mg/kg

SMILES	behavior during SD bouts (129S6/SvEvTac mice [1])	immobility time, day 2 of FST (129S6/SvEvTac mice [2]; Ctrl mice, fluoxetine 18 mg kg^−1 for 3 weeks, vs Ctrl-Veh)	immobility time, day 2 of FST (129S6/SvEvTac mice [2]; SD mice, fluoxetine 18 mg kg^−1 for 3 weeks before SD)	immobility time in the TST (C57BL/6NTac mice [3])	immobility time on day 2 in the FST (C57BL/6NTac mice [4])	latency to feed in NSF (C57BL/6NTac mice [5])	CORT-induced increase in body weight [6]	time in the closed arms of EPM (anxiety-like phenotype) (C57BL/6NTac mice [7])	anxiety or cognition (129S6/SvEvTac mice [8])	prophylactic efficacy (behavioral despair, FST) (129S6/SvEv mice)
CNCCC(Oc1ccc(C(F)(F)F)cc1)c1ccccc1 (stereo not shown) [fluoxetine, fluoxetine hydrochloride]	do not display differences during SD bouts	equal levels of immobility time	did not improve immobility time	decreased immobility time in the TST	decreased immobility time; also recorded: significantly reduced immobility	decreased the latency to feed	prevented the CORT-induced increase in body weight	Neither ketamine nor fluoxetine robustly protected	did not significantly alter anxiety or cognition	
N[C@@]1(c2ccccc2Cl)CCC[C@@H](O)C1=O [HNK, (2R,6R)-hydroxynorketamine]										efficacious as prophylactics
